Reference: patent US20130072466A1, “COMPOSITION CONTAINING PLACENTA EXTRACTS” (Industry-Academic Cooperation Foundation, Yeungnam …, priority 2010, published 2013)

Columns and labels:
[1] = tested on: reproductive cycle; test: Reproductive cycle change assay by vaginal smearing; format: in vivo, CD-1 mice; details: subcutaneous injection for 14 days, FIG. 9
Experimental: (§1) The placenta 1 extract prepared according to the example was dissolved with 100% ethanol as a primary solvent, and sesame oil for body injection was added thereto to obtain a 1 g/ml concentration, and the resultant product was diluted into 0.1% concentration. Herein, 100% was defined as a case in which the extract was diluted with sesame oil by a factor of 100. The diluted extract was subcutaneously injected for 14 days to 6-8 week-old CD-1 mice which had been raised under physiological conditions (6 mice per each group).
To identify effects of the placenta extract on a reproductive cycle, a reproductive cycle was assayed by vaginal smearing during the administration of the placenta extract.

[2] = tested on: CD34 hematopoietic stem cells; test: CD34-marked numerical change assay of hematopoietic stem cells using FACS; format: in vivo, CD-1 mouse; details: 0.1% placenta extract, subcutaneous, 14 days, FIG. 10
Experimental: as §1
Whether the placenta extract promotes proliferation of hematopoietic stem cells was identified with CD34 that is a marking factor. CD-1 mouse treated with 0.1% placenta extract was sacrificed to collect a thighbone, and then, a bone marrow was extracted therefrom by using PBS solution. Thereafter, the bone marrow was reacted with CD34 specific antibody, and then, CD34 hematopoietic stem cells were counted by using a fluorescent activated cell sorter.

[3] = tested on: red blood cells; test: Numerical change assay of red blood cells in peripheral blood; format: in vivo, CD-1 mice; details: 0.1% placenta extract, subcutaneous, 14 days; compared to the control; FIG. 11
Experimental: as §1
The cells were treated with 0.1% placenta extract under the same conditions as described above, and then, peripheral blood was collected, and then, 1 mg/ml of EDTA was added thereto to prevent blood coagulation. Then, the number of red blood cells was counted by using an analyzer.

With `C[C@]12CC[C@H]3[C@@H](CCC4=CC(=O)CC[C@@H]43)[C@@H]1CC[C@@H]2O` [nandrolone] the reproductive cycle periodicity [1] was “a reproductive cycle gradually became non-periodic”, the “number of CD34 hematopoietic stem cells in bone marrow” value [2] was “the number of hematopoietic stem cells significantly increased” and the “number of red blood cells in peripheral blood” value [3] was “the number of red blood cells significantly increased”.
